Laboratory results as given in US9688710B2, “Inhibitors of sodium glucose cotransporter 1” (LEXICON PHARMACEUTICALS, INC., priority 2012, dated 2017).

Columns and labels:
[1] = biological target: Human sodium/glucose co-transporter type 1 (SGLT1) (Homo sapiens (Human), UniProt P13866); assay: In vitro human SGLT1 inhibition assay (14C-AMG uptake); format: cell-based; design: key to SGLT1 (human SGLT1 IC50): ***: a value less than 0.01 μM; **: a value less than 0.1 μM; *: a value less than 1 μM; —: a value not measured or exceeding μM; settings: HEK293 cells expressing human HA-SGLT1, 14C-AMG uptake
Outline: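 Uptake of 14C-AMG (100 nCi) was measured by scintillation counting after 1–2 h at 37 °C, 5% CO2, with or without compound. The buffer was pH 7.3 with 140 mM NaCl, 1 mM CaCl2, 1 mM MgCl2 and 1 mg/mL BSA. Cells were a stable HEK293 line carrying HA-SGLT1 (human), plated overnight at 30,000 per well.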

[2] = biological target: Human sodium/glucose co-transporter type 2 (SGLT2) (Homo sapiens (Human), UniProt P31639); assay: In vitro human SGLT2 inhibition assay (14C-AMG uptake); format: cell-based; design: key to SGLT2 (human SGLT2 IC50): ***: a value less than 0.01 μM; **: a value less than 0.1 μM; *: a value less than 1 μM; —: a value not measured or exceeding μM; settings: HEK293 cells expressing human HA-SGLT2, 14C-AMG uptake
Outline: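 Uptake of 14C-AMG (100 nCi) was followed in a stable HEK293 HA-SGLT2 line over 1-2 h at 37 °C with or without compound. Buffer: 140 mM NaCl, 10 mM HEPES, 5 mM Tris, 1 mg/mL BSA, pH 7.3. Readout was scintillation counting after washing.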

Sequence of Human sodium/glucose co-transporter type 2 (SGLT2) (P31639 whole entry): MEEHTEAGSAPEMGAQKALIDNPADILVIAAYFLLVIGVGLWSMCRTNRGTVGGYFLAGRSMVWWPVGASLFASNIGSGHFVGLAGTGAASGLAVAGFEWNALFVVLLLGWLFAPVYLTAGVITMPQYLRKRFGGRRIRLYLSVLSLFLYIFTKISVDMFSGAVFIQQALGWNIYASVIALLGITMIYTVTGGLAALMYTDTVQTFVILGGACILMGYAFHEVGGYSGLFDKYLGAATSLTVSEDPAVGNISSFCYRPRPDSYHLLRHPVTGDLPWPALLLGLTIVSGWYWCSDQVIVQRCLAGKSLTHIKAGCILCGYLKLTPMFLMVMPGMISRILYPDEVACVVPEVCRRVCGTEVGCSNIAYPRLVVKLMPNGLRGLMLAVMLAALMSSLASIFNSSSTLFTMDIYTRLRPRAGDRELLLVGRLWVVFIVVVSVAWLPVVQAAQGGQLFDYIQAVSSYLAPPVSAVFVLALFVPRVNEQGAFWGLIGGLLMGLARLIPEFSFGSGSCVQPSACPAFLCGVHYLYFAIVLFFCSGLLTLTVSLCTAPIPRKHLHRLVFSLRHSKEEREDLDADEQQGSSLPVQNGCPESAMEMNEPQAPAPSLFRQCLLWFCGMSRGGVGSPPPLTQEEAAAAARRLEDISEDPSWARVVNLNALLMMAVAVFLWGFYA
Sequence of Human sodium/glucose co-transporter type 1 (SGLT1) (P13866 whole entry): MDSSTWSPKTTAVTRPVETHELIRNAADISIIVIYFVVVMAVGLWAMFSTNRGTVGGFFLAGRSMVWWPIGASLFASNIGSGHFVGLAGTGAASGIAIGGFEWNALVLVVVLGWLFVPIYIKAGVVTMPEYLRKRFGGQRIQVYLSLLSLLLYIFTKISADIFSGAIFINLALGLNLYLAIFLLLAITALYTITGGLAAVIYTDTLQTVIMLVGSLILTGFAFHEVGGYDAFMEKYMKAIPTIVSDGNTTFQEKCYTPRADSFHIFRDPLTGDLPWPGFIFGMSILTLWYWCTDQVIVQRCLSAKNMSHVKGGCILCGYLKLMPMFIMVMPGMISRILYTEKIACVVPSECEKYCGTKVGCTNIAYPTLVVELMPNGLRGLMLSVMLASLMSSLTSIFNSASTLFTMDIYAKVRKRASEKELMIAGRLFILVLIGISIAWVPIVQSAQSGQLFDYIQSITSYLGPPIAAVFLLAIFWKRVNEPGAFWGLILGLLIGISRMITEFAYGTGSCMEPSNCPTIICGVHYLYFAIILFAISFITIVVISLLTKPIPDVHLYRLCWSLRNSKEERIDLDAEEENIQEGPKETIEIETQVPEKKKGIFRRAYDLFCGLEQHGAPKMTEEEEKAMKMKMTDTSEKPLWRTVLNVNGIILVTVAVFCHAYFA

| Compound | IC50 [1] [nM] | IC50 [2] [nM] | SGLT1 (human SGLT1 IC50) [1] | SGLT2 (human SGLT2 IC50) [2] |
| --- | --- | --- | --- | --- |
| CS[C@H]1O[C@@H](c2ccc(C)c(Cc3ccc(CCCCCNCc4ccccc4)cc3)c2)[C@H](O)[C@@H](O)[C@@H]1O [(2S,3R,4R,5S,6R)-2-(3-(4-(5-(benzylamino)pentyl)benzyl)-4-methylphenyl)-6-(methylthio)tetrahydro-2H-pyran-3,4,5-triol] | < 100 | < 10 |  |  |
| CS[C@H]1O[C@@H](c2ccc(C)c(Cc3ccc(CCCC(=O)NC(C)(C)C(=O)N4CCOCC4)cc3)c2)[C@H](O)[C@@H](O)[C@@H]1O [N-(2-methyl-1-morpholino-1-oxopropan-2-yl)-4-(4-(2-methyl-5-((2S,3R,4R,5S,6R)-3,4,5-trihydroxy-6-(methylthio)tetrahydro-2H-pyran-2-yl)benzyl)phenyl)butanamide] | < 10 | < 10 |  |  |
| CS[C@H]1O[C@@H](c2ccc(C)c(Cc3ccc(OCC(N)=O)cc3)c2)[C@H](O)[C@@H](O)[C@@H]1O [2-(4-(2-methyl-5-((2S,3R,4R,5S,6R)-3,4,5-trihydroxy-6-(methylthio)tetrahydro-2H-pyran-2-yl)benzyl)phenoxy)acetamide] | < 100 | < 10 |  |  |
| CS[C@H]1O[C@@H](c2ccc(Cl)c(Cc3ccc(OCCNC(=O)C(C)(C)CO)cc3)c2)[C@H](O)[C@@H](O)[C@@H]1O [N-(2-(4-(2-chloro-5-((2S,3R,4R,5S,6R)-3,4,5-trihydroxy-6-(methylthio)tetrahydro-2H-pyran-2-yl)benzyl)phenoxy)ethyl)-3-hydroxy-2,2-dimethylpropanamide] | < 10 | < 10 |  |  |
| CS[C@H]1O[C@@H](c2ccc(C)c(Cc3ccc(CCCCNC(=O)N4CCN(C)CC4)cc3)c2)[C@H](O)[C@@H](O)[C@@H]1O [4-methyl-N-(4-(4-(2-methyl-5-((2S,3R,4R,5S,6R)-3,4,5-trihydroxy-6-(methylthio)tetrahydro-2H-pyran-2-yl)benzyl)phenyl)butyl)piperazine-1-carboxamide] | < 100 | < 10 |  |  |
| CS[C@H]1O[C@@H](c2ccc(Cl)c(Cc3ccc(OCCNC(=O)NC(C)(C)CO)cc3)c2)[C@H](O)[C@@H](O)[C@@H]1O [1-(2-(4-(2-chloro-5-((2S,3R,4R,5S,6R)-3,4,5-trihydroxy-6-(methylthio)tetrahydro-2H-pyran-2-yl)benzyl)phenoxy)ethyl)-3-(1-hydroxy-2-methylpropan-2-yl)urea] | < 10 | < 10 |  |  |
| CS[C@H]1O[C@@H](c2ccc(C)c(Cc3ccc(CCCC(=O)NC(C)(C)C(=O)N4CCN(CCO)CC4)cc3)c2)[C@H](O)[C@@H](O)[C@@H]1O [N-(1-(4-(2-hydroxyethyl)piperazin-1-yl)-2-methyl-1-oxopropan-2-yl)-4-(4-(2-methyl-5-((2S,3R,4R,5S,6R)-3,4,5-trihydroxy-6-(methylthio)tetrahydro-2H-pyran-2-yl)benzyl)phenyl)butanamide] | < 10 | < 10 |  |  |
| CS[C@H]1O[C@@H](c2ccc(C)c(Cc3ccc(OCCCC(=O)NC(C)(C)C(=O)N4CCC(C)CC4)cc3)c2)[C@H](O)[C@@H](O)[C@@H]1O [N-(2-methyl-1-(4-methylpiperidin-1-yl)-1-oxopropan-2-yl)-4-(4-(2-methyl-5-((2S,3R,4R,5S,6R)-3,4,5-trihydroxy-6-(methylthio)tetrahydro-2H-pyran-2-yl)benzyl)phenoxy)butanamide] | < 10 | < 10 |  |  |
| CS[C@H]1O[C@@H](c2ccc(C)c(Cc3ccc(CCCCCCC(=O)NC(C)(C)C(N)=O)cc3)c2)[C@H](O)[C@@H](O)[C@@H]1O [N-(1-amino-2-methyl-1-oxopropan-2-yl)-7-(4-(2-methyl-5-((2S,3R,4R,5S,6R)-3,4,5-trihydroxy-6-(methylthio)tetrahydro-2H-pyran-2-yl)benzyl)phenyl)heptanamide] | < 100 | < 10 |  |  |
| CS[C@H]1O[C@@H](c2ccc(C)c(Cc3ccc(CCCCNC(C)(C)CO)cc3)c2)[C@H](O)[C@@H](O)[C@@H]1O [(2S,3R,4R,5S,6R)-2-(3-(4-(4-((1-hydroxy-2-methylpropan-2-yl)amino)butyl)benzyl)-4-methylphenyl)-6-(methylthio)tetrahydro-2H-pyran-3,4,5-triol] | < 100 | < 10 |  |  |
| CNC(=O)C(C)(C)NC(=O)CCCc1ccc(Cc2cc([C@@H]3O[C@H](SC)[C@@H](O)[C@H](O)[C@H]3O)ccc2C)cc1 [N-(2-methyl-1-(methylamino)-1-oxopropan-2-yl)-4-(4-(2-methyl-5-((2S,3R,4R,5S,6R)-3,4,5-trihydroxy-6-(methylthio)tetrahydro-2H-pyran-2-yl)benzyl)phenyl)butanamide] | < 10 | < 10 |  |  |
| CS[C@H]1O[C@@H](c2ccc(C)c(Cc3ccc(OCCCC(=O)NC(CO)(CO)CO)cc3)c2)[C@H](O)[C@@H](O)[C@@H]1O [N-(1,3-dihydroxy-2-(hydroxymethyl)propan-2-yl)-4-(4-(2-methyl-5-((2S,3R,4R,5S,6R)-3,4,5-trihydroxy-6-(methylthio)tetrahydro-2H-pyran-2-yl)benzyl)phenoxy)butanamide] | < 10 | < 10 |  |  |
| CS[C@H]1O[C@@H](c2ccc(C)c(Cc3ccc(CCCC(=O)NC(C)(C)C(=O)N4CCN(C)CC4)cc3)c2)[C@H](O)[C@@H](O)[C@@H]1O [N-(2-methyl-1-(4-methylpiperazin-1-yl)-1-oxopropan-2-yl)-4-(4-(2-methyl-5-((2S,3R,4R,5S,6R)-3,4,5-trihydroxy-6-(methylthio)tetrahydro-2H-pyran-2-yl)benzyl)phenyl)butanamide] | < 10 | < 10 |  |  |
| COc1ccc(Cc2cc([C@@H]3O[C@H](SC)[C@@H](O)[C@H](O)[C@H]3O)ccc2OC(F)(F)F)cc1 [(2S,3R,4R,5S,6R)-2-(3-(4-methoxybenzyl)-4-(trifluoromethoxy)phenyl)-6-(methylthio)tetrahydro-2H-pyran-3,4,5-triol] |  |  | — | — |
| CS[C@H]1O[C@@H](c2ccc(Cl)c(Cc3ccc(OCCCC(=O)NC(CO)(CO)CO)cc3)c2)[C@H](O)[C@@H](O)[C@@H]1O [4-(4-(2-chloro-5-((2S,3R,4R,5S,6R)-3,4,5-trihydroxy-6-(methylthio)tetrahydro-2H-pyran-2-yl)benzyl)phenoxy)-N-(1,3-dihydroxy-2-(hydroxymethyl)propan-2-yl)butanamide] | < 100 | < 10 |  |  |
| CS[C@H]1O[C@@H](c2ccc(Cl)c(Cc3ccc(OCCCC[C@H](N)C(=O)O)cc3)c2)[C@H](O)[C@@H](O)[C@@H]1O [(S)-2-amino-6-(4-(2-chloro-5-((2S,3R,4R,5S,6R)-3,4,5-trihydroxy-6-(methylthio)tetrahydro-2H-pyran-2-yl)benzyl)phenoxy)hexanoic acid] | < 100 | < 10 |  |  |
| CS[C@H]1O[C@@H](c2ccc(C)c(Cc3ccc(CCCCN(CC(O)CO)CC(O)CO)cc3)c2)[C@H](O)[C@@H](O)[C@@H]1O (stereo partly drawn) [(2S,3R,4R,5S,6R)-2-(3-(4-(4-(bis(2,3-dihydroxypropyl)amino)butyl)benzyl)-4-methylphenyl)-6-(methylthio)tetrahydro-2H-pyran-3,4,5-triol] | < 10 | < 10 |  |  |
| CS[C@H]1O[C@@H](c2ccc(C)c(Cc3ccc(/C=C/C[C@H](N)C(=O)O)cc3)c2)[C@H](O)[C@@H](O)[C@@H]1O [(S,E)-2-amino-5-(4-(2-methyl-5-((2S,3R,4R,5S,6R)-3,4,5-trihydroxy-6-(methylthio)tetrahydro-2H-pyran-2-yl)benzyl)phenyl)pent-4-enoic acid] | < 100 | < 10 |  |  |
| CS[C@H]1O[C@@H](c2ccc(C)c(Cc3ccc(OCCCC(=O)NCCO)cc3)c2)[C@H](O)[C@@H](O)[C@@H]1O [N-(2-hydroxyethyl)-4-(4-(2-methyl-5-((2S,3R,4R,5S,6R)-3,4,5-trihydroxy-6-(methylthio)tetrahydro-2H-pyran-2-yl)benzyl)phenoxy)butanamide] | < 100 | < 10 |  |  |
| CS[C@H]1O[C@@H](c2ccc(C)c(Cc3ccc(OCCCC(=O)NC(C)(C)C(=O)N4CCOCC4)cc3)c2)[C@H](O)[C@@H](O)[C@@H]1O [N-(2-methyl-1-morpholino-1-oxopropan-2-yl)-4-(4-(2-methyl-5-((2S,3R,4R,5S,6R)-3,4,5-trihydroxy-6-(methylthio)tetrahydro-2H-pyran-2-yl)benzyl)phenoxy)butanamide] | < 10 | < 10 |  |  |
| CS[C@H]1O[C@@H](c2ccc(C)c(Cc3ccc(OCCCC(=O)NC(C)(C)C(=O)NC4CCN(C)CC4)cc3)c2)[C@H](O)[C@@H](O)[C@@H]1O [N-(2-methyl-1-((1-methylpiperidin-4-yl)amino)-1-oxopropan-2-yl)-4-(4-(2-methyl-5-((2S,3R,4R,5S,6R)-3,4,5-trihydroxy-6-(methylthio)tetrahydro-2H-pyran-2-yl)benzyl)phenoxy)butanamide] | < 10 | < 10 |  |  |
| CS[C@H]1O[C@@H](c2ccc(C)c(Cc3ccc(CCCCNC(=O)C(C)(C)CO)cc3)c2)[C@H](O)[C@@H](O)[C@@H]1O [3-hydroxy-2,2-dimethyl-N-(4-(4-(2-methyl-5-((2S,3R,4R,5S,6R)-3,4,5-trihydroxy-6-(methylthio)tetrahydro-2H-pyran-2-yl)benzyl)phenyl)butyl)propanamide] | < 10 | < 10 |  |  |
